Read-outs that look alike come from different tables or passages of the source.
Assays:
Experiment in all cases: Cell surface BCMA by FACS
Assay type in all cases: cell-based, human
Settings in all cases: for EC50: Homo sapiens
[1] = test system: Jiyoye cells (Burkitt's Lymphoma)
Procedure: (§1) […] cell lines, comprising 9 subtypes of lymphomas (see Table 1), were seeded at 1×10^5 cells/well in a total volume of 250 μl into a 96-well plate. The cells were cultured in RPMI medium supplemented with 10% FCS. Compound (22) was added to the cell cultures at a concentration of 10 μM, 1 μM, 100 nM, 10 nM, 1 nM, 100 pM, 10 pM, 1 pM, and 100 fM, and cell lines (8 from Hadassah Medical Center, 31 from Eurofins) were incubated at 37° C. for 24 hours with Compound (22). Following incubation, the cells were collected and BCMA levels were evaluated on the cell surface for cell-bound BCMA. Cells were stained with an anti-BCMA antibody (PE anti-human 19F2 BCMA, Biolegend), and cell surface BCMA levels were determined by FACS analysis (Mean Fluorescence Intensity. Soluble BCMA levels were analyzed by ELISA (Human BCMA/TNFRSF17 DuoSet kit: R&D Systems).

[2] = test system: Raji cells (Burkitt's Lymphoma)
Procedure: as §1

[3] = test system: TUR cells (Histiocytic Lymphoma)
Procedure: as §1

[4] = 24 h, read-out: BCMA (Mean Fluorescence Intensity) EC50

With `Cc1cccc2c1NC(=O)[C@@H](NC(=O)[C@H](CCC(F)(F)F)[C@H](CCC(F)(F)F)C(N)=O)N=C2c1cccc(F)c1` [Compound (22), (2R,3S)—N-((3S)-5-(3-fluorophenyl)-9-methyl-2-oxo-2,3-dihydro-1H-1,4-benzodiazepin-3-yl)-2,3-bis(3,3,3-trifluoropropyl)succinamide] the EC50 ([1]; JIYOYE, read-out: mBCMA (MFI) EC50) was 7.6 nM, the EC50 ([1]; Jiyoye, 24 h, read-out: BCMA (Mean Fluorescence Intensity) EC50) was 7.6 nM and the “mBCMA (MFI) Fold Increase” value ([1]; Jiyoye) was 4.2 fold. The “BCMA (Mean Fluorescence Intensity) 1 nM Compound (22)” value ([1]; Jiyoye, 1 nM, 24 h) was 1864, the “BCMA (Mean Fluorescence Intensity) 100 nM Compound (22)” value ([1]; Jiyoye, 100 nM, 24 h) was 2616 and the “cell-bound BCMA” value ([1]; Jiyoye, FIG. 8A) was “increased cell-bound BCMA”. For the same molecule, the “mBCMA (MFI) Fold Increase” value [2] was 2.2 fold, the “BCMA (Mean Fluorescence Intensity) 1 nM Compound (22)” value ([2]; 1 nM, 24 h) was 521 and the “BCMA (Mean Fluorescence Intensity) 100 nM Compound (22)” value ([2]; 100 nM, 24 h) was 650. For the same molecule, the EC50 [2, 4] was 1.1 nM, the EC50 ([2]; read-out: mBCMA (MFI) EC50) was 1.1 nM and the “mBCMA (MFI) Fold Increase” value [3] was 1.0 fold. The “BCMA (Mean Fluorescence Intensity) 1 nM Compound (22)” value ([3]; 1 nM, 24 h) was 464, the “BCMA (Mean Fluorescence Intensity) 100 nM Compound (22)” value ([3]; 100 nM, 24 h) was 462 and the EC50 [3, 4] was > 10000 nM. The EC50 ([3]; read-out: mBCMA (MFI) EC50) was > 10000 nM.
